For 2 molecules, EC50 and Kd results are on record in publication PMC2772868 (Biochemistry, 2009).

In series [1] the target is LacI (lactose repressor protein) (Escherichia coli, UniProt P03023). In kind it is binding.
A further series deals with LacI wild-type (Escherichia coli, UniProt P03023 1-360). Kind of series: filter binding.
Sequence of LacI wild-type (P03023 whole entry): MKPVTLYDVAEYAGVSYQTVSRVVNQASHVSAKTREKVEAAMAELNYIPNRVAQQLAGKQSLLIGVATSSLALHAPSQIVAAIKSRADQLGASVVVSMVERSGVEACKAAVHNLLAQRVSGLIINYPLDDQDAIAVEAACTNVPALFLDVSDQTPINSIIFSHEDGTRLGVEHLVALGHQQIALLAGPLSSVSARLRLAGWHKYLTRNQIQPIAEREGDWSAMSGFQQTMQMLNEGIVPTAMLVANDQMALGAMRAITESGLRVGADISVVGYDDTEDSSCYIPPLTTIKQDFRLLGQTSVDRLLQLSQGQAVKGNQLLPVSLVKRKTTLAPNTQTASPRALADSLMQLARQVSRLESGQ

Sequence of LacI (lactose repressor protein) (P03023 whole entry): as above

For orientation: EC50 means the midpoint of the concentration-response curve. A high value points to lower potency in that assay. In turn, `CC(C)S[C@@H]1O[C@H](CO)[C@H](O)[C@H](O)[C@H]1O` [IPTG, isopropyl-β-D-thiogalactoside] came in with an EC50 in series [1] of 2200 nM.

B1: 40-bp natural lac operator (dsDNA)
DNA 1: TGTTGTGTGGAATTGTGAGCGGATAACAATTTCACACAGG
DNA 2: CCTGTGTGAAATTGTTATCCGCTCACAATTCCACACAACA
As a reminder, the Kd is the concentration at which binding is half-saturated. A lower Kd goes with tighter binding. With B1, in the series with LacI wild-type, the Kd is 0.022 ± 0.002 nM.
